Experimental data taken from patent US20160272709A1, “ANTI-KIR ANTIBODIES” (The Regents of the University of Michigan, priority 2015, published 2016).

Experiments:
CD4^+KIR^+NK1.1^− cells [1] = assay: Flow cytometry (6G10) of KIR on murine T cells treated with 5-azaC; assay type: cell-based
KIRL1 mRNA = KIRL1 mRNA relative to GAPDH by RT-PCR in CD4+ T cells from 5-azaC treated splenocytes; assay type: cell-based, murine; conditions: ConA-stimulated splenocytes, n=4, p=0.038
Protocol: FIGS. 2A-B. (A) Murine splenocytes were stimulated with […], treated or not with 5-azaC, then KirL1 mRNA was measured in CD4^+ T cells relative to GAPDH by RT-PCR. (B) Double transgenic mice were given Dox or not in their drinking water, then KirL1 mRNA measured in CD4+ splenocytes as in panel A.
(§1) To test if the mouse T cell KIR genes are also activated by DNA methylation inhibition, murine splenocytes were stimulated with ConA, treated with 5-azaC, and KIRL1 mRNA measured relative to GAPDH by RT-PCR in CD4+ T cells bead purified by negative selection to remove NK and other non-CD4+ T cells.

CD3^+CD4^+CD28^+ T cells = assay: KIR and CD11a expression on PHA-stimulated, 5-azaC treated PBMC (flow cytometry); assay type: cell-based, human
Protocol: FIGS. 11A-D. 5-Azacytidine treatment of PHA-stimulated PBMC induces the expression of KIR proteins on a subset of CD4^+CD28^+CD11a^hi T cells. PBMC were stimulated for 18-24 hrs with PHA followed by treatment with 2.5 μM 5-azacytidine or saline for 72 hrs. The cells were then stained with fluorochrome-conjugated antibodies to methylation-sensitive gene products, fixed and analyzed by flow cytometry as described in Methods. Gating was established to select CD3^+CD4^+CD28^+ T cells. The CD3^+CD4^+CD28^+ T cells were then analyzed for CD11a and KIR using a cocktail of 5 PE-conjugated anti-KIR antibodies and imaged on a FACS Synergy flow cytometer. (A), Untreated T cells. (B), 5-azaC treated T cells. (C), 5-azaC treated PBMC stained only with the cocktail of anti-KIR antibodies. (D), 5-azaC treated T cells stained with antibodies to CD3, CD4, CD28, CD11a, CD70 and CD40L but not KIR. The figure shown is representative of 9 separate cultures.
The expression of methylation-sensitive genes was analyzed in 5-azaC treated cells from healthy women. PBMCs from a healthy […] were stimulated with PHA then cultured with or without 5-azaC. Seventy-two hours later the cells were washed, stained with fluorochromeconjugated antibodies to CD3, CD4, CD28, CD11a, CD70 and CD40L with and without a “cocktail” of PE conjugated antibodies to 5 distinct KIR proteins then analyzed by flow cytometry as outlined in FIG. 10. […]
In the absence of treatment with the demethylating agent 5-azaC very few KIR+ cells were observed (FIG. 11A). […] Further, CD11a expression on the majority (>70%) of the KIR^+CD3^+CD4^+CD28^+ cells treated with 5-azaC (FIG. 11B, rectangle) was nearly twice that of the corresponding KIR− T cells (FIG. 11B, circle) from the same cultures (median fluorescence intensity 2298+/−748 SD, versus 1394+/−572, respectively, n=9 analyzed in 7 different experiments, p<0.001). […]

[2] = lupus patients; cited from earlier work
CD4^+KIR^+NK1.1^− cells [3] = assay: Flow cytometry (6G10) of KIR on CD4+ splenocytes of tet-on dnMEK transgenic mice receiving dox; assay type: in vivo
Protocol: FIGS. 3A-B.) Double transgenic mice were given Dox (B) or not (A) in their drinking water, then KirL1 expression was measured on CD4+ splenocytes by flow cytometry.
as §1

[4] = test system: CD4^+KIRL1^+CD11a^hiCD40L^+ subset; assay: Multicolor flow cytometry of splenocytes of SJL mice given dox for 6 weeks; assay type: in vivo; conditions: dox 6 weeks; controls 0.007%
Excerpt: SJL mice were given dox for 6 weeks, sacrificed, then splenocytes stained with Pacific Blue-CD3; FITC-CD8; PE-CD40L; PE-Cy5-CD4; Avidin-APC-Cy7/biotin-KIRL1; PERCP-Cy5.5-CD11a. Mice receiving dox developed a CD4^+KIRL1^+CD11a^hiCD40L^+ subset that resembles the human lupus subset shown in FIG. 1, and represented 1.09% of the total CD11a+ cells, while controls had only 0.007% CD4^+KIRL1^+CD11a^hiCD40L^+ cells.

Compound: Nc1ncn([C@@H]2O[C@H](CO)[C@@H](O)[C@H]2O)c(=O)n1 [5-azaC, 5-azacytidine]
- increase in CD4^+KIR^+NK1.1^− cells (CD4^+KIR^+NK1.1^− cells [1]): 3.1 fold
- KIRL1 mRNA relative to GAPDH (KIRL1 mRNA): overexpressed KIRL1 mRNA
- numbers of KIR+ cells (CD3^+CD4^+CD28^+ T cells; 2.5 μM 5-azaC 72 hrs after PHA): increases the numbers of KIR+ cells
- CD11a median fluorescence intensity on KIR^+CD3^+CD4^+CD28^+ cells (CD3^+CD4^+CD28^+ T cells; 5-azaC treated cultures, SD, n=9, p<0.001 vs KIR− cells): 2298+/−748
- CD11a median fluorescence intensity on corresponding KIR− T cells (CD3^+CD4^+CD28^+ T cells; same 5-azaC treated cultures, SD, n=9): 1394+/−572

Compound: CC(=O)N[C@@H](CS)C(=O)O [N-acetylcysteine]
- flare severity [2]: decreases flare severity

Compound: C[C@H]1c2cccc(O)c2C(=O)C2=C(O)[C@]3(O)C(=O)C(C(N)=O)=C(O)[C@@H](N(C)C)[C@@H]3[C@@H](O)[C@@H]21 [dox, doxycycline]
- KIR expression, % of total CD4+ T cells (CD4^+KIR^+NK1.1^− cells [3]; tet-on mouse with higher KIR expression, FIGS. 3A-B): 3.9%
- increase in CD4^+KIR^+NK1.1^− cells (CD4^+KIR^+NK1.1^− cells [3]; transgenic mice receiving dox): 5.7 fold
- CD4^+KIRL1^+CD11a^hiCD40L^+ subset, % of total CD11a+ cells [4]: 1.09%
